Our source for the Ki and Km/Ki values is US10077436B2, “Beta-glucosidase enzymes for increased biomass saccharification” (Edeniq, Inc., priority 2013, dated 2018).

The assay has as its target T1, Aspergillus niger beta-glucosidase, wild type, yEdQ745-BG (CAB75696.1, SEQ ID NO:2) (Aspergillus niger, UniProt Q9P8F4).
T1 construct: strain yEdQ745
T1 sequence (Q9P8F4 20-860): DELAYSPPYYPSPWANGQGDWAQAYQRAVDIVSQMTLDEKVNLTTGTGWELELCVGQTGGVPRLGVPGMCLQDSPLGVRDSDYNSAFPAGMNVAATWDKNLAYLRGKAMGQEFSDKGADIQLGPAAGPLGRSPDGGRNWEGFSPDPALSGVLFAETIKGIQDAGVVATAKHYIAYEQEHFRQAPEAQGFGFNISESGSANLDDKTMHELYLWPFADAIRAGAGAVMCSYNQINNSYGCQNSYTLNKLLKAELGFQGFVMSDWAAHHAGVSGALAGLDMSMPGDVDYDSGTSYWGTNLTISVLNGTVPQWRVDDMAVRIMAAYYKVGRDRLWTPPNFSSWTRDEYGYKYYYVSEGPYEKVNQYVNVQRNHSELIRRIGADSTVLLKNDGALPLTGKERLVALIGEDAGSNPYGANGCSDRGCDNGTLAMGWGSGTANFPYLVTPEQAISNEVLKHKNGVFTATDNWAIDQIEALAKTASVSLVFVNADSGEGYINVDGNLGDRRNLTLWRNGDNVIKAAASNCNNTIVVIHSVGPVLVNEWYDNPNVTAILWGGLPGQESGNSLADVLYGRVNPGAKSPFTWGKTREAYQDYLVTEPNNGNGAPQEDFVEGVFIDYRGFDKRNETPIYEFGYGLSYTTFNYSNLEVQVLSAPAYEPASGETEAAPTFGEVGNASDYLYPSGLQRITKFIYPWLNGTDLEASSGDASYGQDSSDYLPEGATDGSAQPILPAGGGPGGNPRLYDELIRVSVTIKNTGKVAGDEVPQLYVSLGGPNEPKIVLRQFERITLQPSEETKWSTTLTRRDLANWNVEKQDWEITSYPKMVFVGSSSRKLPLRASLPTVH
The assay can be described thus: BG kinetics, cellobiose hydrolysis assay (HPLC) with glucose as competitive inhibitor, yEdQ745-BG. The class given is biochemical. An excerpt: Accordingly, in some embodiments, the unmodified form of the beta-glucosidase is a wild-type or a naturally occurring beta-glucosidase, such as, for example, a fungal beta-glucosidase. The full nucleic acid and amino acid sequence for numerous fungal beta-glucosidases are available. The amino acid sequence of A. niger beta-glucosidase is provided as SEQ ID NO:2. Thus, in some embodiments, the unmodified beta-glucosidase is from an Aspergillus species. In some embodiments, the unmodified beta-glucosidase is from a Trichoderma species.
The beta-glucosidase (BG) gene from Aspergillus niger (Accession #CAB75696.1) was integrated into the TR3 yeast background at the T4U3 genomic site.
The BG-expressing strains were subsequently used in corn mash and corn stover simultaneous saccharification and fermentation (SSF) studies using flask scale and pilot plant fermentations. A 12-gallon corn stover fermentation was performed at 40° C. in which the beta-glucosidase secreting yeast strain was co-inoculated with three other engineered yeast strains individually expressing endoglucanase II, CBH1, and CBHII. Surviving TR3 Saccharomyces cerevisiae yeast strains individually expressing BG, EGII, CBH1 or CBH2 were recovered by plating onto solid medium. A clonal population of BG-secreting yeast was isolated and the BG gene integration confirmed. […]

For the compound `OC[C@H]1OC(O)[C@H](O)[C@@H](O)[C@@H]1O` (some centres unmarked) [glucose], the Ki (usually a measure of affinity in units of concentration, obtained from inhibition or displacement) stood at 1560 ± 290 µM. For the same compound, for the setting “inhibitor influence, Km for cellobiose / Ki for glucose, pH 4.8, 50° C.”, the Km/Ki came out at 0.93.
